Reference: patent EP0500802B1, “LIPOSOMAL COMPOSITIONS” (priority 1989, dated 1991)

Test: Ocular biodistribution of 14C-labelled cromolyn free drug after topical ocular instillation (liquid scintillation counting of tissues)
Type: in vivo, New Zealand white rabbits
Details: for TISSUE CONCENTRATION WEIGHTED MEAN: Examples 1-3
Protocol: A. Preparation of test article. The sodium cromoglycate free drug test article used in the ocular biodistribution studies (Examples 1, 2 and 3) was prepared according to the following formula: […]
B. The [propane-2-¹⁴C]cromolyn sodium used in the biodistribution studies was prepared as follows: 1,3-dichloro[2-¹⁴C]propan-2-ol was reacted with 2,6-dihydroxyacetophenone to give 1,3-bis (2-acetyl-3-hydroxy phenoxy)-2-hydroxy[2-¹⁴C]propane. This was treated with base and diethyl oxalate followed by acid catalysed cyclisation to give diethyl [propane-2-¹⁴C]cromolyn. Hydrolysis with sodium hydroxide gave the final product which was purified by crystallisation from water acetone. C. Specification and Handling of Experimental Animals and Tissues. • 1. Description of Experimental Animals: Female, New Zealand white rabbits (Hare Marland) weighing 2-3 kg were used in these studies. Upon receipt each animal was assigned an identification number and examined for gross signs of general health. The animals were individually housed in standard rabbit cages and given access to food and water ad libitum. Animals were received approximately one week before initiation of the study. Prior to the study the animals were randomly assigned to treatment groups using either a random number table or generator. Immediately before treatment the ocular tissues were examined for signs of irritation. If irritation was observed, either another animal was substituted or the condition noted. Food was removed at the time of treatment Water was available ad libitum throughout. • 2. Topical Ocular Instillation of Test Article: Animals were treated unilaterally by topical ocular instillation using a positive displacement pipet. The eyelids were gently retracted and the dose applied onto the cornea taking care to avoid touching the tissue with the pipet tip. The animal was positioned such that the dose flowed into the lower cul-de-sac. After treatment the animals were returned to their cages. • 3. Collection of Plasma Sample: Immediately prior to euthanasia, animals were placed in a standard rabbit restrainer. A small amount of xylene was applied to an eartip to enhance blood flow. The lateral ear vein was lanced and approximately 500 ul of blood collected in a Microtainer Brand Tube with EDTA (Becton Dickinson). The tubes were mixed by inversion and centrifuged in a microfuge for 10 minutes. A 200 ul aliquot of plasma was transferred to a scintillation vial for further processing of the sample. • 4. Euthanasia: Animals were euthanized by intravenous injection of a lethal dose of T61 Euthanasia Fluid (Hoechst-Roussel) into a lateral ear vein. Death was verified by absence of respiration, heart beat, and ocular reflexes. • 5. Dissection of Ocular Tissues. • a. Removal of Aqueous Humor: Aqueous humor was removed using a 1 ml disposable, plastic syringe equipped with a 5/8"-27g needle. The needle was inserted into the anterior chamber at the limbus. The fluid was gently withdrawn and transferred to a preweighed scintillation vial. • b. Removal of Globe, Conjunctiva, and Nictitating Membrane: The eyelids were retracted using 6" curbed hemostats. Incisions were made at the corners of the eye to facilitate dissection of the conjunctiva. The palpebral conjunctiva and nictitating membrane were dissected free of the eyelids, muscle, and connective tissue using Wilmer-Converse conjunctiva scissors. The conjunctiva and nictitating membrane were grasped with straight Kirby tissue forceps to form a sack around the globe. The sack and its contents were removed from the socket as a unit using heavy curved nucleation scissors. Excess blood was removed from the outside of the sac by gentle blotting with gauze pads. • c. Dissection of Conjunctiva, and Nictitating Membrane: The nictitating membrane was grasped with straight Kirby tissue forceps. The conjunctiva was cut with heavy curved eye scissors along one edge of the nictitating membrane. […]

O=C(O)c1cc(=O)c2c(OCC(O)COc3cccc4oc(C(=O)O)cc(=O)c34)cccc2o1 [CROMOLYN FREE DRUG, 5,5' -[(2-Hydroxy-1,3-propanediyl)bis-(oxy)]bis[4-oxo-4H-1-benzopyran-2-carboxylic acid]]
TISSUE CONCENTRATION MEAN (AQUEOUS HUMOR, Rx eye, 2 HR, EXAMPLE 1): 70 ng Cromolyn/g or ml Tissue
TISSUE CONCENTRATION MEAN (AQUEOUS HUMOR, Rx eye, 2 HR, EXAMPLE 2): 36 ng Cromolyn/g or ml Tissue
TISSUE CONCENTRATION MEAN (AQUEOUS HUMOR, Rx eye, 2 HR, EXAMPLE 3): 129 ng Cromolyn/g or ml Tissue
TISSUE CONCENTRATION WEIGHTED MEAN (AQUEOUS HUMOR, Rx eye, 2 HR): 39 ng Cromolyn/g or ml Tissue
TISSUE CONCENTRATION MEAN (AQUEOUS HUMOR, Rx eye, 4 HR, EXAMPLE 1): 37 ng Cromolyn/g or ml Tissue
TISSUE CONCENTRATION MEAN (AQUEOUS HUMOR, Rx eye, 4 HR, EXAMPLE 2): 29 ng Cromolyn/g or ml Tissue
TISSUE CONCENTRATION MEAN (AQUEOUS HUMOR, Rx eye, 4 HR, EXAMPLE 3): 68 ng Cromolyn/g or ml Tissue
TISSUE CONCENTRATION WEIGHTED MEAN (AQUEOUS HUMOR, Rx eye, 4 HR): 35 ng Cromolyn/g or ml Tissue
TISSUE CONCENTRATION MEAN (AQUEOUS HUMOR, Rx eye, 8 HR, EXAMPLE 1): 16 ng Cromolyn/g or ml Tissue
TISSUE CONCENTRATION MEAN (AQUEOUS HUMOR, Rx eye, 8 HR, EXAMPLE 2): 13 ng Cromolyn/g or ml Tissue
TISSUE CONCENTRATION MEAN (AQUEOUS HUMOR, Rx eye, 8 HR, EXAMPLE 3): 10 ng Cromolyn/g or ml Tissue
TISSUE CONCENTRATION WEIGHTED MEAN (AQUEOUS HUMOR, Rx eye, 8 HR): 13 ng Cromolyn/g or ml Tissue
TISSUE CONCENTRATION MEAN (CONJUNCTIVA, Rx eye, 2 HR, EXAMPLE 1): 3501 ng Cromolyn/g or ml Tissue
TISSUE CONCENTRATION MEAN (CONJUNCTIVA, Rx eye, 2 HR, EXAMPLE 2): 3316 ng Cromolyn/g or ml Tissue
TISSUE CONCENTRATION MEAN (CONJUNCTIVA, Rx eye, 2 HR, EXAMPLE 3): 2332 ng Cromolyn/g or ml Tissue
TISSUE CONCENTRATION WEIGHTED MEAN (CONJUNCTIVA, Rx eye, 2 HR): 2887 ng Cromolyn/g or ml Tissue
TISSUE CONCENTRATION MEAN (CONJUNCTIVA, Rx eye, 4 HR, EXAMPLE 1): 742 ng Cromolyn/g or ml Tissue
TISSUE CONCENTRATION MEAN (CONJUNCTIVA, Rx eye, 4 HR, EXAMPLE 2): 683 ng Cromolyn/g or ml Tissue
TISSUE CONCENTRATION MEAN (CONJUNCTIVA, Rx eye, 4 HR, EXAMPLE 3): 772 ng Cromolyn/g or ml Tissue
TISSUE CONCENTRATION WEIGHTED MEAN (CONJUNCTIVA, Rx eye, 4 HR): 716 ng Cromolyn/g or ml Tissue
TISSUE CONCENTRATION MEAN (CONJUNCTIVA, Rx eye, 8 HR, EXAMPLE 1): 687 ng Cromolyn/g or ml Tissue
TISSUE CONCENTRATION MEAN (CONJUNCTIVA, Rx eye, 8 HR, EXAMPLE 2): 578 ng Cromolyn/g or ml Tissue
TISSUE CONCENTRATION MEAN (CONJUNCTIVA, Rx eye, 8 HR, EXAMPLE 3): 614 ng Cromolyn/g or ml Tissue
TISSUE CONCENTRATION WEIGHTED MEAN (CONJUNCTIVA, Rx eye, 8 HR): 607 ng Cromolyn/g or ml Tissue
TISSUE CONCENTRATION MEAN (CORNES, Rx eye, 2 HR, EXAMPLE 1): 1005 ng Cromolyn/g or ml Tissue
TISSUE CONCENTRATION MEAN (CORNES, Rx eye, 2 HR, EXAMPLE 2): 478 ng Cromolyn/g or ml Tissue
TISSUE CONCENTRATION MEAN (CORNES, Rx eye, 2 HR, EXAMPLE 3): 683 ng Cromolyn/g or ml Tissue
TISSUE CONCENTRATION WEIGHTED MEAN (CORNES, Rx eye, 2 HR): 519 ng Cromolyn/g or ml Tissue
TISSUE CONCENTRATION MEAN (CORNES, Rx eye, 4 HR, EXAMPLE 1): 487 ng Cromolyn/g or ml Tissue
TISSUE CONCENTRATION MEAN (CORNES, Rx eye, 4 HR, EXAMPLE 2): 298 ng Cromolyn/g or ml Tissue
TISSUE CONCENTRATION MEAN (CORNES, Rx eye, 4 HR, EXAMPLE 3): 381 ng Cromolyn/g or ml Tissue
TISSUE CONCENTRATION WEIGHTED MEAN (CORNES, Rx eye, 4 HR): 337 ng Cromolyn/g or ml Tissue
TISSUE CONCENTRATION MEAN (CORNES, Rx eye, 8 HR, EXAMPLE 1): 160 ng Cromolyn/g or ml Tissue
TISSUE CONCENTRATION MEAN (CORNES, Rx eye, 8 HR, EXAMPLE 2): 165 ng Cromolyn/g or ml Tissue
TISSUE CONCENTRATION MEAN (CORNES, Rx eye, 8 HR, EXAMPLE 3): 127 ng Cromolyn/g or ml Tissue
TISSUE CONCENTRATION WEIGHTED MEAN (CORNES, Rx eye, 8 HR): 162 ng Cromolyn/g or ml Tissue
TISSUE CONCENTRATION MEAN (IRIS-CILIARY BODY, Rx eye, 2 HR, EXAMPLE 3): 56 ng Cromolyn/g or ml Tissue
TISSUE CONCENTRATION MEAN (IRIS-CILIARY BODY, Rx eye, 4 HR, EXAMPLE 3): 29 ng Cromolyn/g or ml Tissue
TISSUE CONCENTRATION MEAN (NICTITATING MEMBRANE, Rx eye, 2 HR, EXAMPLE 1): 2136 ng Cromolyn/g or ml Tissue
TISSUE CONCENTRATION MEAN (NICTITATING MEMBRANE, Rx eye, 2 HR, EXAMPLE 2): 2438 ng Cromolyn/g or ml Tissue
TISSUE CONCENTRATION MEAN (NICTITATING MEMBRANE, Rx eye, 2 HR, EXAMPLE 3): 2618 ng Cromolyn/g or ml Tissue
TISSUE CONCENTRATION WEIGHTED MEAN (NICTITATING MEMBRANE, Rx eye, 2 HR): 2319 ng Cromolyn/g or ml Tissue
TISSUE CONCENTRATION MEAN (NICTITATING MEMBRANE, Rx eye, 4 HR, EXAMPLE 1): 480 ng Cromolyn/g or ml Tissue
TISSUE CONCENTRATION MEAN (NICTITATING MEMBRANE, Rx eye, 4 HR, EXAMPLE 2): 484 ng Cromolyn/g or ml Tissue
TISSUE CONCENTRATION MEAN (NICTITATING MEMBRANE, Rx eye, 4 HR, EXAMPLE 3): 576 ng Cromolyn/g or ml Tissue
TISSUE CONCENTRATION WEIGHTED MEAN (NICTITATING MEMBRANE, Rx eye, 4 HR): 494 ng Cromolyn/g or ml Tissue
TISSUE CONCENTRATION MEAN (NICTITATING MEMBRANE, Rx eye, 8 HR, EXAMPLE 1): 348 ng Cromolyn/g or ml Tissue
TISSUE CONCENTRATION MEAN (NICTITATING MEMBRANE, Rx eye, 8 HR, EXAMPLE 2): 350 ng Cromolyn/g or ml Tissue
TISSUE CONCENTRATION MEAN (NICTITATING MEMBRANE, Rx eye, 8 HR, EXAMPLE 3): 462 ng Cromolyn/g or ml Tissue
TISSUE CONCENTRATION WEIGHTED MEAN (NICTITATING MEMBRANE, Rx eye, 8 HR): 383 ng Cromolyn/g or ml Tissue
TISSUE CONCENTRATION MEAN (PLASMA, 2 HR, EXAMPLE 3): 1 ng Cromolyn/g or ml Tissue
Cromolyn levels in the aqueous humor of the untreated eye (any time point (2, 4, 8 hours), Example 1 results text): no detectable
